Source: US20170049777A1, “COMPOSITIONS, METHODS AND USES FOR THE TREATMENT OF DIABETIC NEUROPATHIES” (Pharnext, priority 2014, published 2017)
Like-named read-outs stand apart in the source and are kept apart here.

Experiments:
[1] = tested on: rat cortical neurons; assay: Neurite network length of rat cortical primary neurons under high glucose; format: cell-based; conditions: 45 mmol/L glucose, 24 hours, MAP-2 staining
Description: Rat cortical neurons are cultured as described by Singer et al.. Briefly, pregnant female rats of 15 days gestation are killed by cervical dislocation (rats Wistar) and the foetuses are removed from the uterus. The cortex is then removed and placed in ice-cold medium of Leibovitz (L15) containing 2% of Penicillin 10.000 U/mL and Streptomycin 10 mg/mL and 1% of bovine serum albumin (BSA). Cortices are dissociated by trypsin for 20 min at 37° C. (0.05%). The reaction is stopped by the addition of Dulbecco's modified Eagle's medium (DMEM) containing DNasel grade II and 10% of foetal calf serum (FCS). Cells are then mechanically dissociated by 3 serial passages through a 10 mL pipette and centrifuged at 515×g for 10 min at +4° C. The supernatant is discarded and the pellet of cells is re-suspended in a defined culture medium consisting of Neurobasal supplemented with B27 (2%), L-glutamine (0.2 mM), 2% of PS solution and 10 ng/mL of BDNF. Viable cells are counted in a Neubauer cytometer using the trypan blue exclusion test. The cells are seeded at a density of 30 000 cells/well in 96 well-plates (wells were pre-coated with poly-L-lysine (10 μg/mL)) and were cultured at +37° C. in a humidified air (95%)/CO2 (5%) atmosphere.
After 10 days of culture, cells are incubated with drugs and their combinations. After 1 hour, medium glucose concentration is raised to 45 mmol/L glucose in defined medium without BDNF but together with tested compound. Cortical neurons are so cultured for 24 hours. BDNF (10 ng/mL) is used as a positive (neuroprotective) control. Three independent cultures were performed per condition, 6 wells per condition.
After 24 hours of culture in high glucose conditions, the supernatant is taken off and the cortical neurons are fixed by a cold solution of ethanol (95%) and acetic acid (5%) for 5 min. After permeabilization with 0.1% of saponin, cells are blocked for 2 hours with PBS containing 1% foetal calf serum. Then, cells are incubated with monoclonal antibody anti microtubule-associated-protein 2 (MAP-2; Sigma). This antibody stains specifically cell bodies and neurites of neurons. […] Nuclei of neurons are labelled by a fluorescent marker (Hoechst solution, Sigma).
Per well, 10 pictures are taken using InCell Analyzer™ 1000 (GE Healthcare) with 20× magnification. All pictures are taken in the same conditions. Analysis of the neurite network is done using Developer software (GE Healthcare) in order to assess the total length of neurite network.

[2] = tested on: DRG explants from STZ rats; assay: Neurite outgrowth from dorsal root ganglia explants from STZ rats; format: cell-based, rat
[3] = tested on: sensory neurons and Schwann cells co-culture; assay: Myelination in co-culture of sensory neurons and Schwann cells under high glucose (MBP expression); format: cell-based, rat; set-up: key: +: significant improvement in length of myelinated axons when compared to non-treated conditions as assessed by MBP expression; conditions: 45 mmol/L glucose, 50 μg/mL ascorbic acid, MBP staining, 5, 9, 10, 11 and 13 days
Description: A model of co-culture was used as an in vitro model of diabetes. This model of myelination consists in co-culturing sensory neurons and Schwann cells from Wistar rats dissociated dorsal root ganglia (DRG).
The aim of this study is to assess the effect of tested compounds and compound combinations on myelination process under high glucose conditions mimicking diabetes. The effect of the tested compounds on myelination, either in high glucose concentration or not, is assessed by evaluating Myelin Basic Protein (MBP) expression in presence of ascorbic acid.
Fifteen days gestation pregnant female rats are killed by cervical dislocation. The embryos are removed from the uterus and are at similar foetal stage of development.
Rat DRG are cultured as previously described by Cosgaya et al. and Rangaraju et al..
Each embryo is dispatched on numerating petri dish (35 mm of diameter). DRG of each embryo is collected, placed in ice-cold medium of Leibovitz (L15, Invitrogen). At the end of the dissection, DRG of TGM are pooled and dissociated by trypsinization (trypsin EDTA, 0.05%; Invitrogen) for 20 min at 37° C. The reaction is stopped by addition of DMEM containing 10% of foetal bovine serum (FBS) in the presence of DNAase I (Roche). The suspension is triturated with a 10 mL pipette. Cells are then centrifuged at 350×g for 10 min at room temperature. The pellet of dissociated cells is resuspended in neurobasal medium (Invitrogen) containing 2% of B27 (Invitrogen), 1% of penicillin-streptomycin (Invitrogen), 1% de L glutamine and 50 ng/mL NGF (Sigma). This medium is the neuronal medium. Viable cells are counted in a Neubauer cytometer using the trypan blue exclusion test (Sigma) and seeded on the basis of 10 000 cells per well in 96 well-plates (Greiner) treated with poly-L-lysine. The plates are maintained at 37° C. in a humidified incubator, in an atmosphere of air (95%)-CO2 (5%). Half of the standard neuronal culture medium is changed every other day. The cultures are maintained in standard neurobasal medium for 7 days to allow Schwann cells to populate the sensory neuron neurites. On day 7, the cultures are fed with standard neuronal medium supplemented or not with 50 μg/mL ascorbic acid in order to initiate basal lamina formation and myelination.
On Day 7, the Following Tested Compounds (Alone or in Combination) Listed in Table 5 are added in the medium with 50 μg/mL ascorbic acid. Basal glucose in culture medium is 25 mmol/L, which is necessary for DRG neuron survival. To produce a hyperglycemic insult, 20 mmol/L additional glucose (total 45 mmol/L glucose) is added to the media for the period specified.
The tested compounds are incubated for 5 different times: 5, 9, 10, 11 and 13 days.
Three separate and independent cultures of DRG are done. These conditions are assessed in presence of ascorbic acid, 6 wells per condition. The solution ready to use of all tested compounds are extemporaneously prepared from a stock solution, stored at −20° C. This solution is prepared once a week. Half of the standard neuronal medium supplemented with tested compounds, ascorbic acid (each at the concentration 1×) and glucose are changed every other day.
After 5, 9, 10, 11 and 13 days of incubation, cells are fixed by a cold solution of ethanol (95%) and acetic acid (5%) for 10 min. The cells are permeabilized and blocked with PBS containing 0.1% saponin and 10% goat serum for 15 min. Then, the cells are incubated with a specific marker of myelin: polyclonal antibody anti-myelin basic protein (MBP) antibody (Sigma 118K0431).
Nuclei of neurons are labelled by a fluorescent marker (Hoechst solution, SIGMA ref B1155).
Per well, 20 pictures are taken using InCell Analyzer™ 1000 (GE Healthcare) with 20× magnification. All images are taken in the same conditions. Analysis of total length of myelinated axons was automatically done (length and area around axons) using
Developer software (GE Healthcare). All values will be expressed as mean+/−s.e.mean. […]

[4] = spinal cord explants from diabetic rats cultured 24-48-72 hours with compound

Structure (SMILES)	Protection of neurite network, rat cortical primary cell culture [1]	protecting DRG from apoptosis and/or improving neurite outgrowth [2]	Protection of neurite network, DRG explants from STZ rats [2, 4]	Myelinated axon length [3]	Protection of neurite network, DRG explants from STZ rats [2]
CC(=O)NCCCS(=O)(=O)O [acamprosate]	+	particularly efficient	+	+	–
NCC(CC(=O)O)c1ccc(Cl)cc1 (stereo not drawn) [baclofen]	+	particularly efficient	–	+	+
CCN(CC)CCOCCOC(=O)C1(c2ccccc2)CCCC1 [carbetapentane]	+	particularly efficient	+	+	–
CN/C(=N/CCSCc1nc[nH]c1C)NC#N [cimetidine]	+	particularly efficient	+	+	–
C[C@@H](NCCCc1cccc(C(F)(F)F)c1)c1cccc2ccccc12 [cinacalcet]	+	particularly efficient	+	+	–
CN(C)CC[C@@H](c1ccc(Br)cc1)c1ccccn1 [dexbrompheniramine]	+	particularly efficient	+	+	–
CCN(CC)C(=O)N1CCN(C)CC1 [diethylcarbamazine]	+	particularly efficient	+	+	–
CC(C(O)c1ccc(O)cc1)N1CCC(Cc2ccccc2)CC1 (stereo not drawn) [ifenprodil]	+	particularly efficient	+	+	–
C[C@@H]1CC(=O)NN=C1c1ccc(NN=C(C#N)C#N)cc1 [levosimendan]	+	particularly efficient	+	+	–
Cc1cccc(C)c1OCC(C)N (stereo not drawn) [mexiletine]	+	particularly efficient	+	+	–
CO[C@]12C[C@@H](COC(=O)c3cncc(Br)c3)CN(C)[C@@H]1Cc1cn(C)c3cccc2c13 [nicergoline]	+	particularly efficient	+	+	–
C1COC(NC(C2CC2)C2CC2)=N1 [rilmenidine]	+	particularly efficient	+	+	–
Cc1ccc(C(=O)C(C)CN2CCCCC2)cc1 (stereo not drawn) [tolperisone]	+	particularly efficient	+	+	–
Cc1cccc(Nc2ccncc2S(=O)(=O)NC(=O)NC(C)C)c1 [torasemide]	+	particularly efficient	+	+	–
Nc1nc(N)c2nc(-c3ccccc3)c(N)nc2n1 [triamterene]	+	particularly efficient	+	+	–
